test: Agonist activation of human dopamine receptor stimulating mitogenesis in Dopamine receptor D4-transfected CHO pro-5 cells using [3H]thymidine as radioligand

| SMILES | EC50 |
| --- | --- |
| Cc1cccc(C(=O)NCN2CCN(c3ccccc3Cl)CC2)c1 [N-[4-(2-Chloro-phenyl)-piperazin-1-ylmethyl]-3-methyl-benzamide] | 16 nM |
| O=C(NCN1CCN(c2ccccc2Cl)CC1)c1ccccc1 [N-[4-(2-Chloro-phenyl)-piperazin-1-ylmethyl]-benzamide] | 106 nM |
| COc1ccccc1N1CCN(CNC(=O)c2ccc(C)cc2)CC1 [N-[4-(2-Methoxy-phenyl)-piperazin-1-ylmethyl]-4-methyl-benzamide] | 3.4 nM |
| Cc1ccc(C(=O)NCN2CCN(c3ccccc3Cl)CC2)cc1 [N-[4-(2-Chloro-phenyl)-piperazin-1-ylmethyl]-4-methyl-benzamide] | 218 nM |
| N#Cc1ccccc1N1CCN(CNC(=O)c2ccccc2)CC1 [N-[4-(2-Cyano-phenyl)-piperazin-1-ylmethyl]-benzamide] | 24 nM |
| COc1ccccc1N1CCN(CNC(=O)c2cccc(C)c2)CC1 [N-[4-(2-Methoxy-phenyl)-piperazin-1-ylmethyl]-3-methyl-benzamide] | 13 nM |
| COc1ccccc1N1CCN(CNC(=O)c2ccccc2)CC1 [N-[4-(2-Methoxy-phenyl)-piperazin-1-ylmethyl]-benzamide] | 31 nM |
| COc1ccccc1N1CCN(CNC(=O)c2ccc(Cl)cc2)CC1 [4-Chloro-N-[4-(2-methoxy-phenyl)-piperazin-1-ylmethyl]-benzamide] | 8.4 nM |
| N#Cc1ccccc1N1CCN(CNC(=O)c2cccc(Cl)c2)CC1 [3-Chloro-N-[4-(2-cyano-phenyl)-piperazin-1-ylmethyl]-benzamide] | 5.3 nM |
| N#Cc1ccccc1N1CCN(CNC(=O)c2ccc(Cl)cc2)CC1 [4-Chloro-N-[4-(2-cyano-phenyl)-piperazin-1-ylmethyl]-benzamide] | > 3.9 nM |
| O=C(NCN1CCN(c2ccccc2Cl)CC1)c1ccc(Cl)cc1 [4-Chloro-N-[4-(2-chloro-phenyl)-piperazin-1-ylmethyl]-benzamide] | 8.4 nM |
| Cc1ccc(C(=O)NCN2CCN(c3ccccc3C#N)CC2)cc1 [N-[4-(2-Cyano-phenyl)-piperazin-1-ylmethyl]-4-methyl-benzamide] | 1.2 nM |
| COc1ccccc1N1CCN(CNC(=O)c2cccc(Cl)c2)CC1 [3-Chloro-N-[4-(2-methoxy-phenyl)-piperazin-1-ylmethyl]-benzamide] | 15 nM |
